The source of these data is patent US12649751B2 (Arcus Biosciences, Inc., priority 2022, dated 2026).

Where only a bound is given, the exact number is not on record here.

The target of one assay is HPK1 (Homo sapiens, UniProt Q92918). As to the kind of experiment: HPK1 Biochemical Assay (ADP-Glo luminescence; low ATP 10 μM or high ATP 200 μM). Particulars: 2 nM HPK1, 10 μM ATP; read-out: Biochemical Potency (low ATP). On the procedure: Dose-response assays were performed in Corning® Low Volume 384-well assay plates containing 100 nL of 22 serial 2-fold compound dilutions. Wells containing DMSO alone were used as negative control. A kinase mixture (5 μL) containing 2 nM HPK1 (or 5 nM for high ATP assay) in assay buffer (50 mM Hepes pH 7.4, 10 mM MgCl2, 0.01% Brij-15, 0.01% bovine serum albumin, and 1 mM dithiothreitol) was added to the assay plates and incubated at 25° C. for 1 hour. Wells without HPK1 were used as positive control. A […] of 10 μM ATP (or 200 μM for high ATP) and 0.2 μg/μL […] was then added to the wells, resulting in a 10 μL total reaction volume. Following incubation of the assay plates at 25° C. for 1 hour, 10 μL of ADP-Glo reagent was added to the wells and the plates were incubated at 25° C. for a further 40 minutes (or 1 hour for high ATP assay). Finally, 20 μL of Kinase Detection Reagent was added, and the plates were incubated for another 30 minutes at 25° C. An Envision plate reader was then used to detect the luminescence signals. IC50 values were determined by fitting the data to a standard 4-parameter logistic equation. The results are summarized in the Biochemical Potency columns of Tables 4 and 5 below (Biochemical Potency (high ATP); Biochemical Potency (low ATP)).
Chain of HPK1 (Q92918 whole entry, species assumed): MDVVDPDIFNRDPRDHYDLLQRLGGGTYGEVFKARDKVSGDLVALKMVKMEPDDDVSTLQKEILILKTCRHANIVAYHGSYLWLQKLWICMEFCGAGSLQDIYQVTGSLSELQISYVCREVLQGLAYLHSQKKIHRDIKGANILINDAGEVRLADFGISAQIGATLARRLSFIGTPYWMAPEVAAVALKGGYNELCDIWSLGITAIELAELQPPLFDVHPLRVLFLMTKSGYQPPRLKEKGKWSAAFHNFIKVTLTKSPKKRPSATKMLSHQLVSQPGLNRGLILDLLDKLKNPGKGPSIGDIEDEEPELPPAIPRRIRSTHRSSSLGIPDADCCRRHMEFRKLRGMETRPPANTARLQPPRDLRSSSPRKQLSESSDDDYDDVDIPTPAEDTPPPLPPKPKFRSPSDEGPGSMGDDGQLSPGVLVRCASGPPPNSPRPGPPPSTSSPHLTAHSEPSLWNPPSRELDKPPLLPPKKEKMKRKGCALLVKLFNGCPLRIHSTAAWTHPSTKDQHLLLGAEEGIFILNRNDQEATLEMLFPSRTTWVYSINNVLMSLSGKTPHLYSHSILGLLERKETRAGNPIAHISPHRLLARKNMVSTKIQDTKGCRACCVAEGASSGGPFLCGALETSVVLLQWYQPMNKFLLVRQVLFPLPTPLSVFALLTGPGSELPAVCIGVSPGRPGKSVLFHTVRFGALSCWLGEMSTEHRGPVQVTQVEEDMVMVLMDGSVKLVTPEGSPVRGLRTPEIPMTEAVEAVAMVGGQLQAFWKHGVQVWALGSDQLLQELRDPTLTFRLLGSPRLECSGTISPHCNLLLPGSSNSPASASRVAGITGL
Background: ADP-Glo first removes unused ATP, then detects ADP through luciferase.
With `Cc1cccnc1-c1nc2cc(Nc3ccc(N4CCC(F)(F)C4)c(N4CCCC4)n3)ncc2s1` [Example 280, 5-(3,3-Difluoropyrrolidin-1-yl)-N-[2-(3-methylpyridin-2-yl)-[1,3]thiazolo[5,4-c]pyridin-6-yl]-6-(pyrrolidin-1-yl)pyridin-2-amine], the IC50 lay in the range of 1 to 5 µM.
The same measure, in the same setting: with `Fc1ccc(-c2nc3cc(Nc4ccc(C5CCOCC5)c(CN5CCCC5)n4)ncc3s2)cc1` [Example 223] the figure was less than 0.1 µM; with `Cc1cccnc1-c1nc2cc(Nc3cccc(N4CCN(C)[C@H](C)C4)n3)ncc2s1` [Example 104, 6-[(3R)-3,4-Dimethylpiperazin-1-yl]-N-[2-(3-methylpyridin-2-yl)-[1,3]thiazolo[5,4-c]pyridin-6-yl]pyridin-2-amine], less than 0.1 µM; with `CN(C)Cc1nc(Nc2cc3nc(NC(=O)c4c(F)cccc4F)sc3cn2)ccc1N1CCOCC1` [Example 282, N-[6-({6-[(Dimethylamino)methyl]-5-(morpholin-4-yl)pyridin-2-yl}amino)-[1,3]thiazolo[5,4-c]pyridin-2-yl]-2,6-difluorobenzamide], less than 0.1 µM.
Same read-out and setting: next, `Cc1ccc(Nc2cc3nc(-n4nccc4C)sc3cn2)nc1N1C[C@@H](N)C[C@H]1CO` [Example 201, [(2S,4S)-4-Amino-1-(3-methyl-6-{[2-(5-methyl-1H-pyrazol-1-yl)-[1,3]thiazolo[5,4-c]pyridin-6-yl]amino}pyridin-2-yl)pyrrolidin-2-yl]methanol]: less than 0.1 µM.
On the same count and under the same terms, with `Cc1cccnc1-c1nc2cc(Nc3ccc(C4CCOCC4)c(CN4CC[C@@H](F)C4)n3)ncc2s1` [Example 213, 6-{[(3R)-3-Fluoropyrrolidin-1-yl]methyl}-N-[2-(3-methylpyridin-2-yl)-[1,3]thiazolo[5,4-c]pyridin-6-yl]-5-(oxan-4-yl)pyridin-2-amine] the figure was less than 0.1 µM.
Regarding `Cc1cccnc1-c1nc2cc(Nc3cc(C4CCOCC4)nc(N4C[C@@H]5C[C@H]4CN5)n3)ncc2s1` [Example 250, 2-[(1S,4S)-2,5-Diazabicyclo[2.2.1]heptan-2-yl]-N-[2-(3-methylpyridin-2-yl)-[1,3]thiazolo[5,4-c]pyridin-6-yl]-6-(oxan-4-yl)pyrimidin-4-amine], the IC50 was less than 0.1 µM.
The same measure, in the same setting: with `Cc1ccn(-c2nc3cc(Nc4ccc(N5CCOCC5)c(CN5CCCC5)n4)ncc3s2)n1` [Example 195, N-[2-(3-Methyl-1H-pyrazol-1-yl)-[1,3]thiazolo[5,4-c]pyridin-6-yl]-5-(morpholin-4-yl)-6-[(pyrrolidin-1-yl)methyl]pyridin-2-amine] the figure was less than 0.1 µM.
As to `Cc1cccnc1-c1nc2cc(Nc3ccc(C)c(N4C[C@H](N)C[C@@H]4CO)n3)ncc2s1` [Example 67, [(2R,4R)-4-Amino-1-(3-methyl-6-{[2-(3-methylpyridin-2-yl)-[1,3]thiazolo[5,4-c]pyridin-6-yl]amino}pyridin-2-yl)pyrrolidin-2-yl]methanol], the IC50 was less than 0.1 µM.
On the same count and under the same terms, with `Cc1cccnc1-c1nc2cc(Nc3cccc(N4CCN(C)[C@@H](C)C4)n3)ncc2s1` [Example 94, 6-[(3S)-3,4-Dimethylpiperazin-1-yl]-N-[2-(3-methylpyridin-2-yl)-[1,3]thiazolo[5,4-c]pyridin-6-yl]pyridin-2-amine] the figure was less than 0.1 µM.
The same measure, in the same setting: with `Cc1ccc(Nc2cc3nc(-c4ccc(F)cc4)sc3cn2)nc1CN1CCCC1` [Example 32, N-[2-(4-Fluorophenyl)-[1,3]thiazolo[5,4-c]pyridin-6-yl]-5-methyl-6-[(pyrrolidin-1-yl)methyl]pyridin-2-amine] the figure was less than 0.1 µM; with `Cc1cccnc1-c1nc2cc(Nc3cccc(N4CCN5CCC[C@H]5C4)n3)ncc2s1` [Example 113, 6-[(8aS)—Octahydropyrrolo[1,2-a]pyrazin-2-yl]-N-[2-(3-methylpyridin-2-yl)-[1,3]thiazolo[5,4-c]pyridin-6-yl]pyridin-2-amine], less than 0.1 µM; with `Cc1cc(Nc2cc3nc(-c4nccn4C)sc3cn2)nc(O[C@H]2CCNC2)c1` [Example 183, 4-Methyl-N-[2-(1-methyl-1H-imidazol-2-yl)-[1,3]thiazolo[5,4-c]pyridin-6-yl]-6-[(3S)-pyrrolidin-3-yloxy]pyridin-2-amine], less than 0.1 µM.
On the same count and under the same terms, next, `Cc1cccnc1-c1nc2cc(Nc3cncc(N4C[C@@H](N)C[C@H]4CO)n3)ncc2s1` [Example 150, [(2S,4S)-4-Amino-1-(6-{[2-(3-methylpyridin-2-yl)-[1,3]thiazolo[5,4-c]pyridin-6-yl]amino}pyrazin-2-yl)pyrrolidin-2-yl]methanol]: less than 0.1 µM; `Cc1cc(Nc2cc3nc(N4CCOCC4)sc3cn2)nc(O[C@H]2CCNC2)c1` [Example 191, 4-Methyl-N-[2-(morpholin-4-yl)-[1,3]thiazolo[5,4-c]pyridin-6-yl]-6-((3S)-pyrrolidin-3-yloxy)pyridin-2-amine]: less than 0.1 µM; `CN(C)C(=O)c1cccc(-c2nc3cc(Nc4nccc(N5C[C@@H]6C[C@H]5CN6C)n4)ncc3s2)c1` [Example 243, N,N-Dimethyl-3-[6-({4-[(1S,4S)-5-methyl-2,5-diazabicyclo[2.2.1]heptan-2-yl]pyrimidin-2-yl}amino)-[1,3]thiazolo[5,4-c]pyridin-2-yl]benzamide]: 0.1 to 1 µM.
Take `C[C@@H]1CCCN1c1nc2cc(Nc3ccc(C4CCOCC4)c(CN4CCCC4)n3)ncc2s1` [Example 229, N-{2-[(2R)-2-Methylpyrrolidin-1-yl]-[1,3]thiazolo[5,4-c]pyridin-6-yl}-5-(oxan-4-yl)-6-[(pyrrolidin-1-yl)methyl]pyridin-2-amine]: the IC50 was in the range of 0.1 to 1 µM.
Still for that read-out and setting: with `Cc1cccnc1-c1nc2cc(Nc3cccc(N4CC5CC(C4)N5C)n3)ncc2s1` [Example 98, 6-{6-Methyl-3,6-diazabicyclo[3.1.1]heptan-3-yl}-N-[2-(3-methylpyridin-2-yl)-[1,3]thiazolo[5,4-c]pyridin-6-yl]pyridin-2-amine] the figure was less than 0.1 µM; with `C[C@H]1CCCCN1c1nc2cc(Nc3ccc(C4CCOCC4)c(CN4CCCC4)n3)ncc2s1` [Example 236, N-{2-[(2S)-2-Methylpiperidin-1-yl]-[1,3]thiazolo[5,4-c]pyridin-6-yl}-5-(oxan-4-yl)-6-[(pyrrolidin-1-yl)methyl]pyridin-2-amine], less than 0.1 µM; with `Cc1cc(Nc2cc3nc(-c4cc(C#N)ccc4C)sc3cn2)nc(O[C@H]2CCNC2)c1` [Example 176, 4-Methyl-3-(6-{[4-methyl-6-((3S)-pyrrolidin-3-yloxy)pyridin-2-yl]amino}-[1,3]thiazolo[5,4-c]pyridin-2-yl)benzonitrile], less than 0.1 µM.
Same read-out and setting: next, `CN1C[C@@H]2C[C@H]1CN2c1cncc(Nc2cc3nc(-c4cc(N5CC[C@H](F)C5)ccn4)sc3cn2)n1` [Example 124, N-(2-{4-[(3S)-3-Fluoropyrrolidin-1-yl]pyridin-2-yl}-[1,3]thiazolo[5,4-c]pyridin-6-yl)-6-[(1S,4S)-5-methyl-2,5-diazabicyclo[2.2.1]heptan-2-yl]pyrazin-2-amine]: less than 0.1 µM; `CN1C[C@@H]2C[C@H]1CN2c1cncc(Nc2cc3nc(-c4cccc(C(C)(C)O)c4)sc3cn2)n1` [Example 152, 2-{3-[6-({6-[(1S,4S)-5-Methyl-2,5-diazabicyclo[2.2.1]heptan-2-yl]pyrazin-2-yl}amino)-[1,3]thiazolo[5,4-c]pyridin-2-yl]phenyl}propan-2-ol]: less than 0.1 µM.

Still in this assay, the particulars now being: HPK1 ADP-Glo assay, high ATP (200 μM ATP, 5 nM HPK1); read-out: Biochemical Potency (high ATP).
`CC[C@@H]1COCCN1c1cncc(-c2nc3cc(Nc4cc(C)nc(N5C[C@@H]6C[C@H]5CN6CC)n4)ncc3s2)c1` [Example 473]: the IC50 is less than 0.1 µM.
`Cc1cc(Nc2cc3nc(-c4cccc(C(=O)N(C)C[C@@H]5CCOC5)c4)sc3cn2)nc(N2C[C@@H]3C[C@H]2CN3CCO)n1` [Example 557]: the IC50 was less than 0.1 µM.

Staying with this assay, now noted: HPK1 ADP-Glo assay, low ATP (10 μM ATP, 2 nM HPK1); read-out: Biochemical Potency (low ATP).
`CN1C[C@@H]2C[C@H]1CN2c1nccc(Nc2cc3nc(-c4ncco4)sc3cn2)n1` [Example 420]: the IC50 is less than 0.1 µM.
The same measure, in the same setting: with `CN1C[C@@H]2C[C@H]1CN2c1nccc(Nc2cc3nc(-c4ccnc(N5CC[C@H](F)C5)c4)sc3cn2)n1` [Example 463] the figure was less than 0.1 µM; with `CN(C)S(=O)(=O)c1cccc(-c2nc3cc(Nc4cccc(N5C[C@@H]6C[C@H]5CN6)n4)ncc3s2)c1` [Example 325], less than 0.1 µM; with `CN1C[C@@H]2C[C@H]1CN2c1nc(Nc2cc3nc(-c4ccnc(C(C)(C)O)c4)sc3cn2)cc(C2CCOCC2)n1` [Example 439], less than 0.1 µM.
The same measure, in the same setting: with `Cc1cccnc1-c1nc2cc(Nc3ccc4c(n3)[C@H](N)CC4)ncc2s1` [Example 582] the figure was less than 0.1 µM; with `CN1C[C@@H]2C[C@H]1CN2c1nccc(Nc2cc3nc(-c4ccnc(N5CC[C@H](O)C5)c4)sc3cn2)n1` [Example 462], less than 0.1 µM; with `CC(C)(O)c1cc(-c2nc3cc(Nc4cc(C5CCOCC5)nc(N5C[C@@H]6C[C@H]5CN6)n4)ncc3s2)ccn1` [Example 441], less than 0.1 µM.
Regarding `CN1C[C@@H]2C[C@H]1CN2c1cncc(Nc2cc3nc(-c4cccc(C(=O)N5CC[C@H](F)C5)c4)sc3cn2)n1` [Example 417], the IC50 is less than 0.1 µM.
